Data on two compounds can be found in patent US20200129435A1, “COMPOSITION FOR DELIVERING A THERAPEUTIC AGENT AND METHODS FOR MAKING AND USING” (UVic Industry Partnerships Inc., priority 2018, published 2020).

Like-named read-outs stand apart in the source and are kept apart here.

Data set [1] relates to U-87 MG cells. Description: Cell count assay (hemocytometer, Trypan Blue). Format: cell-based, human. The settings on record: 40 μM ATRA in cell medium. Here is the method: U-87 MG cells were provided by ATCC® and cultured in Dulbecco's Modified Eagle Medium (DMEM), high glucose (Gibco™ by Life Technologies™, Carlsbad, USA, Catalog No.: 11965084) with 10% fetal bovine serum (Gibco™ by Life Technologies™, Carlsbad, USA, Catalog No.: 12483020), 1% penicillin-streptomycin (Invitrogen/Life Technologies™, Carlsbad, USA, Catalog No.: 15140122), and 4 μg/ml puromycin at 37° C. in an atmosphere of 5% CO2. Cells were counted by hemocytometer (Bright-Line™) with two-time dilution in Trypan Blue solution (Sigma-Aldrich, St Louis, USA, Catalog No.:93595).

The conditions of data set [2]: oral administration is the main route; cited from earlier work.
Data set [3] has as its system U-87 MG cells. Description: Apoptosis assay, propidium iodide flow cytometry, sub-G1 population. Format: cell-based, human. To be noted: free ATRA 40 μM; 48 hours.
Experimental: To determine the level of apoptosis induced by ATRA apoptosis levels were detected using propidium iodide (PI) lysis buffer and flow cytometry. […] 1% sodium citrate (Bio Basic, Markham, Canada, Catalog No.: CB0035) and 0.1% Triton X-100 (Sigma-Aldrich, Sigma-Aldrich, St. Louis, USA Catalog No.: X100) were added to distilled water to prepare an initial solution for PI lysis buffer. The pH of the solution was adjusted to 7.4 and stored.
Prior to the apoptosis assay, RNase (Sigma-Aldrich, St. Louis, USA Catalog No.: R6513) and propidium iodide (Sigma-Aldrich, St. Louis, USA Catalog No.: P4864) was added to the initial solution to reach concentrations of 0.5 mg/ml and 40 μg/ml for RNase and propidium iodide, respectively. The cell media was collected and the cells were detached with EDTA (Caledon Laboratory Chemicals, Georgetown, Canada, Catalog No.: 3460-1-65) solution. The cell suspension was centrifuged at 4° C. in 1500 g for 5 minutes. Following, the cell pellets were washed twice with 500 μl of DPBS (Gibco™ by Life Technologies™, Carlsbad, USA, Catalog No.: 14190250) 4° C. The pellets were then lysed and stained with 250 μl of PI lysis buffer, and kept at room temperature in the dark for 15-30 minutes. […] Finally, the red channel was read on the flow cytometer to determine the sub-G1 population.
The test system of data set [4] is U-87 MG cells. Description: Bright field microscopy of treated cells. To be noted: free ATRA = 40 μM. The class given is cell-based, human.
Data set [5] has as its system U-87 MG cells. Kind of data set: PrestoBlue cell viability assay (Example 1). Format: cell-based, human. As for the experimental part: Cell viability was assessed by PrestoBlue™ (Invitrogen/Life Technologies™, Carlsbad, USA, Catalog No.: A13262) assay. In this experiment, cells were first seeded in 6-well plates in a density of 6×10^4 cells/well. Viability tests were conducted at 48, 72, and 96 hours by replacing the cell media with 10% PrestoBlu™ reagent and incubating at 37° C. for 1 hour. Following, 100 μl of the incubated 10% PrestoBlue™ reagent from each well of the assay plates was transferred to a new well in a 96-well plate and read by a microplate reader (Infinite M200 Pro). Finally, viability was calculated by the following equation: […]

In data set [6] the test system is U87 glioblastoma cells. Kind of data set: PrestoBlue cell viability assay (Example 2). Format: cell-based. To be noted: Homo sapiens, 96-hours treatment, read-out: reduction of cell viability. Here is the method:
PrestoBlue™ cell viability assay was used to determine the effect of TMZ on the viability and proliferation of U87 glioblastoma cells. In this assay, metabolically active cells reduce a non-fluorescent compound (resazurin) in the PrestoBlue™ solution into a fluorescent molecule (resorufin).
In this study, U87 glioblastoma cells were seeded in a 96 well plate at 5,000 cells per well density, and a 24 well plate at 25,000 cells per well density to evaluate the cytotoxicity of free TMZ and one embodiment of the disclosed composition, respectively. The wells were then incubated for 24 hours at 37° C. with 95% relative humidity and 5% CO2. To determine the effect of the free TMZ, U87 glioblastoma cells were treated with different concentrations of the drug from 100 μM to 1000 μM in the cell medium. To study the effect of the disclosed hydrogel composition, the cells were treated with both microsphere-loaded (TMZ concentration of 100 μM) and blank meshes. Cells were incubated for 24, 48, 72, and 96 hours without changing the cell culture medium. […] Subsequently, the cell culture medium containing presto blue was transferred into a new well plate and the fluorescent intensity of each well was measured at excitation wavelength of 535 nm and emission wavelength of 615 nm by using a plate reader. Cell viability was then calculated by using equation 4 (Eq. 4): […]

On to `CC1=C(/C=C/C(C)=C/C=C/C(C)=C/C(=O)O)C(C)(C)CCC1` [ATRA, all-trans retinoic acid], for which the entries for the “cell population relative to control condition” value in data set [1] (48 hours) and in data set [1] (96 hours) were 86.0%±7.2% and 64.4%±8.6%, respectively. Moreover, the half-life entry in data set [2] is “about 1.5 hours”. In addition, the “apoptosis (sub-G1 population)” value in data set [3] is reported as “about 2%”. Moreover, the cell morphology result in data set [4] is given as “cell shrinkage”. Also, the “cell viability compared to control” value in data set [5] (20 μM in cell medium, 96 hours) worked out at 77%; in data set [5] (40 μM in cell medium, 96 hours), 72%. The viability at 20 µM in data set [5] (Homo sapiens, U-87 MG, 48 h, 20 μM in cell medium, 48 hours, read-out: cell viability compared to control) is 88.4%; in data set [5] (Homo sapiens, U-87 MG, 96 h, 20 μM in cell medium, 96 hours, read-out: cell viability compared to control), 77.3%. For the same compound, the viability at 40 µM in data set [5] (Homo sapiens, U-87 MG, 96 h, 40 μM in cell medium, 96 hours, read-out: cell viability compared to control) came to 72.4%.

As to `Cn1nnc2c(C(N)=O)ncn2c1=O` [TMZ, Temozolomide], the cytotoxicity at 100 µM in data set [6] (free TMZ 100 μM) came out at 78%. Also, the cytotoxicity at 1000 µM in data set [6] (free TMZ 1000 μM) is 95%.
